One data set deals with rats (Wistar strain). As to the kind of experiment: Toxicity (oral administration to rats). The format is in vivo. To be noted: orally, 4,000 mg./kg., ten rats (Wistar strain), suspended in 5% aqueous gum arabic solution. Here is the method: Each of the above-listed compounds, A, B, C and D was suspended in a 5% aqueous gum arabic solution and then was administered orally to ten rats (Wistar strain) in the dosage of 4,000 mg./kg.

For data set [1], the system named is liver disease (hepatitis) induced by D-galactosamine. As to the kind of experiment: Activity against liver disease (hepatitis) induced by D-galactosamine. The format is in vivo, rats (SD strain). To be noted: test compound orally 400 mg./kg. each time (0, 4, 10, 24 h); D-galactosamine hydrochloride s.c. 200 mg./kg. (4, 10, 24 h); blood collection at 28 h; nine rats per group. The protocol:
Activity against liver disease (hepatitis) induced by D-galactosamine
D-Galactosamine hydrochloride and the above-listed compound were administered (1) subcutaneously in the dosage of 200 mg./kg. each time and (2) orally in the dosage of 400 mg./kg. each time, respectively, to rats (SD strain, weight: approximately 250 g.) according to the schedule described hereinafter. After completion of the administrations, the blood was collected from the rats and there were measured the GOT value, GPT value and alkali phosphotase value, all of which are indicative of the degree of liver disease.
Each test compound was administered in the form of a suspension thereof in a 5% aqueous gum arabic solution. The D-galactosamine hydrochloride was administered in the form of an aqueous solution thereof in distilled water adjusted to pH 7 by addition of potassium hydroxide.
There were provided the test compound groups (nine rats per each group) in which the rats were administered with the test compound and with D-galactosamine hydrochloride; a control group (fourteen rats) in which the rats were administered with a plain 5% aqueous gum arabic solution free of the test compound and with D-galactosamine hydrochloride; and a normal group (eight rats) in which the rats were not administered with either the test compound or D-galactosamine hydrochloride.
4 test compound and D-galactosamine
10 test compound and D-galactosamine
24 test compound and D-galactosamine

Take `CC(C)=CCC/C(C)=C/CC/C(C)=C/CCC(C)CC(=O)O` (stereo not shown) [Compound A, (E, E)-3,7,11,15-tetramethyl-6,10,14-hexadecatrienoic acid]: the “Deaths of the rats” value with rats (Wistar strain) is given as “No deaths of the rats were observed”. Besides, in data set [1], the Alkali phosphatase value was determined as 56.2 KA - u, the GOT value was 312.4 carmen unit and the GPT value is reported as 208.3 carmen unit.

As to `CCOC(=O)CC(C)CC/C=C(\C)CC/C=C(\C)CCC=C(C)C` (stereo not shown) [Compound B, ethyl (E, E)-3,7,11,15-tetramethyl-6,10,14-hexadecatrienoate], the “Deaths of the rats” value in the data set on rats (Wistar strain) is given as “No deaths of the rats were observed”. In data set [1], this molecule had an Alkali phosphatase value of 55.8 KA - u, a GOT value of 307.1 carmen unit and a GPT value of 199.7 carmen unit.

For the molecule `CC(C)=CCC/C(C)=C/CC/C(C)=C/CCC(C)CCO` (stereo not shown) [Compound C, (E, E)-3,7,11,15-tetramethyl-6,10,14-hexadecatrien-1-ol], in the data set with rats (Wistar strain), the “Deaths of the rats” value is listed as “No deaths of the rats were observed”. In data set [1], this molecule gave an Alkali phosphatase value of 54.2 KA - u, a GOT value of 337.7 carmen unit and a GPT value of 185.6 carmen unit.

On to `CC(=O)OCCC(C)CC/C=C(\C)CC/C=C(\C)CCC=C(C)C` (stereo not shown) [Compound D, (E, E)-3,7,11,15-tetramethyl-6,10,14-hexadecatrienyl acetate], for which the “Deaths of the rats” value in the data set with rats (Wistar strain) is “No deaths of the rats were observed”. In data set [1], this molecule showed an Alkali phosphatase value of 53.5 KA - u, a GOT value of 315.3 carmen unit and a GPT value of 178.7 carmen unit.

For the origin of these results see patent US4571408A, “α,β-Dihydropolyprenyl derivatives for treating hepatitis” (Eisai Co., Ltd., priority 1980, dated 1986).
